SMILES strings stand for the structures.

The target of this test is T1, human HSL (Homo sapiens, UniProt Q05469).
T1 construct: generate a full length human HSL ORF with a 3′-His6 tag; made in house; host or cells: High 5 insect cells (baculovirus, pFast-BAC)
T1 sequence (Q05469 1-1076): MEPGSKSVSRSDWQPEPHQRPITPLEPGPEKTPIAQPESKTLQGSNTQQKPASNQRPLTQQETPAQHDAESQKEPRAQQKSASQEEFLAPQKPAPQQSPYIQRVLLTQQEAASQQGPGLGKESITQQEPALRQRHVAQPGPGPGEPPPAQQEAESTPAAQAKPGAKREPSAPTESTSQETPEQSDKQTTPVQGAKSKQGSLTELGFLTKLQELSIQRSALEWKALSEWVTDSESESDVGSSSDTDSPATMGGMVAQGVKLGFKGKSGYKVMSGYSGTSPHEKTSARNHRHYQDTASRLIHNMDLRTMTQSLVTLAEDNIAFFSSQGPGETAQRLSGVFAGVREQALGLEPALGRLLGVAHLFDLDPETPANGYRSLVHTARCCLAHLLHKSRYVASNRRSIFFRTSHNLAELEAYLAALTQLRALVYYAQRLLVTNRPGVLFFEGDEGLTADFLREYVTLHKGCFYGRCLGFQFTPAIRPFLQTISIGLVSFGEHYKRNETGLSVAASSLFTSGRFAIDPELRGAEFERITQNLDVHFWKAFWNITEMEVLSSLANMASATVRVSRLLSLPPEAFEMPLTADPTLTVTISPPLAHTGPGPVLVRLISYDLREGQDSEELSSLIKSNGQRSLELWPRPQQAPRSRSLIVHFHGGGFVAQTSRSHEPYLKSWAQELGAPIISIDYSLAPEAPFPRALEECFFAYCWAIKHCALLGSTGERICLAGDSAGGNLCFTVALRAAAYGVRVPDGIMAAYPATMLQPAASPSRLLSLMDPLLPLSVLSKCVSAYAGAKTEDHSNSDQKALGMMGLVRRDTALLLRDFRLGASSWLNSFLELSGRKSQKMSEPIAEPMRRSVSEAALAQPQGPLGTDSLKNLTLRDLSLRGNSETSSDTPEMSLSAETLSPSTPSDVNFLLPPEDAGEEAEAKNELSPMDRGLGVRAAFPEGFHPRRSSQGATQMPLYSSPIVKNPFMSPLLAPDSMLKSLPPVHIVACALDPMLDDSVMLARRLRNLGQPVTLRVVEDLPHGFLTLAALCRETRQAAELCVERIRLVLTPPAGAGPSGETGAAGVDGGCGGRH
Put plainly: Human Hormone-Sensitive Lipase (HSL) enzyme inhibition assay (colorimetric, DMPT substrate). It counts as biochemical. The settings on record: human full length HSL-His6, 2,3-dimercapto-1-propanol tributyrate substrate, 37° C. 20 minutes, absorbance at 405 nm; read-out: HSL hum IC50. Summed up:
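Full-length human HSL with C-terminal His6, expressed in baculovirus-infected High 5 cells and Ni-NTA purified, was added (15 ug/ml stock) to 1.5 mM DMPT in 100 mM MOPS pH 7.2, 0.2 mg/ml fatty acid-free BSA containing compound. After 20 min at 37 °C, DTNB with SDS/Triton X-100 was added; A405 read after 15 min at RT.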
For `CCC[C@]1(O)CC[C@]2(CCN(c3ccc(C(C)(C)COC)cc3)C2=O)CC1` [Example 132, (5α,8α)-8-Hydroxy-2-[4-(2-methoxy-1,1-dimethyl-ethyl)-phenyl]-8-propyl-2-aza-spiro[4.5]decan-1-one], the IC50 was 20 nM.
For `O=C1N(c2ccc(C(F)(F)F)cc2)CC[C@]12CC[C@@](O)(COCC(F)(F)F)CC2` [Example 219, (5α,8α)-8-hydroxy-8-((2,2,2-trifluoroethoxy)methyl)-2-(4-(trifluoromethyl)phenyl)-2-aza-spiro[4.5]decan-1-one], the IC50 was determined as 11 nM.
Under `CC(C)(C)c1ccc(N2CCC3(CCC(O)(COc4ccccn4)CC3)C2=O)cc1` (stereo not drawn) [Example 352, (5α,8α)-2-(4-tert-Butyl-phenyl)-8-hydroxy-8-(pyridin-2-yloxymethyl)-2-aza-spiro[4.5]decan-1-one] stands 30 nM; under `C[C@]1(O)CC[C@]2(CCN(c3ccc(OCC(F)(F)F)cc3)C2=O)CC1` [Example 86, (5α,8α)-8-Hydroxy-8-methyl-2-[4-(2,2,2-trifluoro-ethoxy)-phenyl]-2-aza-spiro[4.5]decan-1-one], 130 nM; under `CCOC[C@]1(O)CC[C@]2(CCN(c3ccc(CC)cc3)C2=O)CC1` [Example 225, (5α,8α)-8-Ethoxymethyl-2-(4-ethyl-phenyl)-8-hydroxy-2-aza-spiro[4.5]decan-1-one], 60 nM.
Under `CCC[C@]1(O)CC[C@]2(CCN(c3ccc(OCCOC)cc3)C2=O)CC1` [Example 95, (5α,8α)-8-Hydroxy-2-[4-(2-methoxy-ethoxy)-phenyl]-8-propyl-2-aza-spiro[4.5]decan-1-one] stands 240 nM; under `COc1ccc(CNC(=O)O[C@H]2CC[C@@]3(CCN(c4ccc(OC(F)(F)F)cc4)C3=O)CC2)cc1` [Example 13, (4-Methoxy-benzyl)-carbamic acid [(5α,8β)-1-oxo-2-(4-trifluoromethoxy-phenyl)-2-aza-spiro[4.5]dec-8-yl]ester], 90 nM; under `CCCS(=O)(=O)C[C@]1(O)CC[C@]2(CCN(c3ccc(C(C)(C)C)cc3)C2=O)CC1` [Example 331, (5α,8α)-2-(4-tert-Butyl-phenyl)-8-hydroxy-8-(propane-1-sulfonylmethyl)-2-aza-spiro[4.5]decan-1-one], 12 nM.
In the case of `CCOC(=O)C[C@]1(O)CC[C@]2(CCN(c3ccc(OC(F)(F)F)cc3)C2=O)CC1` [Example 116, [(5α,8α)-8-Hydroxy-1-oxo-2-(4-trifluoromethoxy-phenyl)-2-aza-spiro[4.5]dec-8-yl]-acetic acid ethyl ester] it was 10 nM.
`C[C@@H](Oc1ccc(N2CC[C@]3(CC[C@](O)(COCC(F)(F)F)CC3)C2=O)cc1)C(F)(F)F` [Example 284, (5α,8β)-8-Hydroxy-8-(2,2,2-trifluoro-ethoxymethyl)-2-[4-((R)-2,2,2-trifluoro-1-methyl-ethoxy)-phenyl]-2-aza-spiro[4.5]decan-1-one]: the IC50 was 360 nM.
Under `C=CCC[C@]1(O)CC[C@@]2(CCN(c3ccc(OC(F)(F)F)cc3)C2=O)CC1` [Example 65, (5α,8β)-8-But-3-enyl-8-hydroxy-2-(4-trifluoromethoxy-phenyl)-2-aza-spiro[4.5]decan-1-one] stands 440 nM; under `O=c1ccccn1C[C@]1(O)CC[C@@]2(CCN(c3ccc(OCC(F)(F)F)cc3)C2=O)CC1` [Example 370, (5α,8β)-8-Hydroxy-8-(2-oxo-2H-pyridin-1-ylmethyl)-2-[4-(2,2,2-trifluoro-ethoxy)-phenyl]-2-aza-spiro[4.5]decan-1-one], 80 nM; under `Cc1cccc(CO[C@H]2CC[C@@]3(CCN(c4ccc(OC(F)(F)F)cc4)C3=O)CC2)n1` [Example 16, (5α,8β)-8-(6-Methyl-pyridin-2-ylmethoxy)-2-(4-trifluoromethoxy-phenyl)-2-aza-spiro[4.5]decan-1-one], 100 nM.

By IC50 is commonly meant the point on the concentration scale where inhibition reaches its midpoint.

These data come from patent US8440710B2, “HSL inhibitors useful in the treatment of diabetes” (Hoffmann-La Roche Inc., priority 2009, dated 2013).
